The assay has as its target FGFR4 (Homo sapiens, UniProt P22455). As to the kind of experiment: Cell FGFR4 (ECHO) Assay: inhibition of transiently expressed FGFR4 phosphorylation in Cos-1 cells. The class given is cell-based. On the set-up: expressed in transfected cells; host or cells: Cos-1. The conditions noted are these: Cos-1 cells transiently expressing FGFR4, 1 hour incubation; read-out: IC50 (inhibition of phosphorylated FGFR4). An excerpt:
Cell based inhibition of transiently expressed FGFR4 phosphorylation via use of ECHO technology (measured using phospho-specific primary and fluorescent secondary antibodies).
This assay is designed to detect inhibitors of transiently expressed FGFR4 phosphorylation by antibody staining of fixed cells detected using ArrayScan technology. Cos-1 cells were routinely passaged in DMEM (Gibco BRL, 41966) plus 3% foetal calf serum (FCS), 1% L-glutamine (Gibco BRL, 25030) to a confluence of 80%. To undertake the assay, Cos-1 cells were harvested at 90-95% confluence for cell transfection. For each 96-well plate, 24 μL Lipofectamine 2000 was added to 809 μL OptiMEM and incubated at room temperature for 5 minutes. For each 96 well plate, 20 μg 3′ FLAG tagged FGFR4/pcDNA3.1 (MSD 6273) was diluted with OptiMEM to a total volume of 833 μL. Equal volumes of DNA and Lipofectamine 2000 were combined (DNA:Lipid=1:1.2 ratio) and incubated at room temperature for 20 minutes.
The harvested Cos-1 cells are counted using a coulter counter and diluted further with 1% FCS/DMEM to 1.2×10^5 cells/mL. For each 96-well, 8.33 mL cells were required. […]
Media was removed from the wells using vacuum aspiration; cells were fixed by adding 50 μL of 100% methanol to each well and incubated at room temperature for 20 minutes. […] The plates were read on an Arrayscan (Cellomics). […]

By pIC50 is commonly meant the negative decadic logarithm of the IC50, by convention in mol/L.

pIC50: −log10 of the molar value. “And” between values parts separate entries of the source, which are not always exact repeats. Identical values can stand only once.

FGFR4, sequence (P22455 22-802): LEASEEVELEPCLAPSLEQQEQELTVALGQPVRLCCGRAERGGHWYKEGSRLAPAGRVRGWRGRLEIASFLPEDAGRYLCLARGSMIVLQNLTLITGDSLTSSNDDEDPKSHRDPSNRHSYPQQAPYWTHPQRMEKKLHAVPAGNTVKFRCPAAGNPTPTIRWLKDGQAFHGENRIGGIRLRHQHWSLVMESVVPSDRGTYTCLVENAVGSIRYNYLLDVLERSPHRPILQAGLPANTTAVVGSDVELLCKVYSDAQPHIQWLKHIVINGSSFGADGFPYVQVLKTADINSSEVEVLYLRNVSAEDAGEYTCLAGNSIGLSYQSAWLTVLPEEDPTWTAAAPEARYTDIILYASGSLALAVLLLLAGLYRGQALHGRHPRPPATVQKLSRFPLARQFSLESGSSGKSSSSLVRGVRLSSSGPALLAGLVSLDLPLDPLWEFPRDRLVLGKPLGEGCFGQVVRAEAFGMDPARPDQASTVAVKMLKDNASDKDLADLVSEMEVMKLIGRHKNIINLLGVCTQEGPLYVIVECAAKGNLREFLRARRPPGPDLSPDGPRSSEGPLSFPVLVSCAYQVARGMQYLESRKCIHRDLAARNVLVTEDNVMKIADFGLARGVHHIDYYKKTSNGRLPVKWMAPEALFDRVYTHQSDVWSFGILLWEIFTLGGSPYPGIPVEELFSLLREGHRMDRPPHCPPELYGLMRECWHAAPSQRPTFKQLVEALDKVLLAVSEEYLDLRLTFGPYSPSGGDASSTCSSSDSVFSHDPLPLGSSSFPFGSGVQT

Turning to `COc1cc(CCc2cc(NC(=O)c3ccc(N4CCN(C)[C@H](C)C4)cc3)[nH]n2)cc(OC)c1` [Example 1b, (R)—N-(3-(3,5-Dimethoxyphenethyl)-1H-pyrazol-5-yl)-4-(3,4-dimethylpiperazin-1-yl)benzamide], the pIC50 was 7.54 and 7.48 and 7.35 and 7.55.

The record behind these values is patent US20090318468A1, “PYRAZOLE COMPOUNDS 436” (AstraZeneca AB, priority 2008, published 2009).
